Data from US10941158B2, “Pyrazole ACC inhibitors and uses thereof” (Gilead Apollo, LLC, priority 2015, dated 2021).
≈ marks a conversion by molar mass, not a printed value. Like-named read-outs stand apart in the source and are kept apart here.

Assays:
[1] = tested on: C. parapsilosis ATCC 22019; assay: Anti-Fungal (Candida) Activity Assay, broth microtiter MIC; assay type: cell-based; conditions: Lodderomyces parapsilosis, read-out: MIC C. parapsilosis ATCC 22019
Description: (§1) Compounds of the present invention were evaluated in an Anti-Fungal Activity Assay. An exemplary procedure for the assay, which measures the susceptibility of various Candida species to anti-fungal compounds, follows. Compounds to be tested (including fluconazole and amphotericin B) were dissolved in DMSO to obtain a solution having a concentration of 1 mg/mL. […] All species were grown from frozen stock by directly plating on to freshly prepared Sabouraud Dextrose agar (BD, Difco) and incubated overnight in ambient air at 35° C. for 24 h. A direct suspension was prepared in RPMI 1640+MOPS (Lonza, Biowhittaker) by taking individual colonies from the overnight cultures using sterile swabs soaked in sterile saline. The concentration of the suspension was determined using pre-determined standard curves. […] Broth microtiter MIC challenge plates were prepared following CLSI guidelines (M27-A3, Vol. 28 No. 14). The original CLSI guidelines focused on reading Candida MICs after 48 h of incubation. As reading after only 24 h offers a clear advantage of patient care, QC limits are being established for all drugs at 24 h. That being said there are no known interpretive breakpoints for amphotericin B at 24 h and the current fluconazole interpretive breakpoints are based on a 48 h reading. The MIC for the test compounds were recorded at 48 h. All MIC determinations were achieved by visually comparing the growth found in the antibiotic challenged wells to that of the growth control.

C. albicans ATCC 90028 = assay: as above; assay type: cell-based; conditions: read-out: MIC C. albicans ATCC 90028
Description: as §1

C. krusei ATCC 6258 = assay: as above; assay type: cell-based; conditions: Pichia kudriavzevii, read-out: MIC C. krusei ATCC 6258
Description: as §1

human (hACC2) ACC2 = human (hACC2) ACC2 (Homo sapiens, UniProt O00763); assay: In vitro Acetyl-CoA Carboxylase (ACC) inhibition assay (ADP-Glo), hACC2; assay type: biochemical
Chain of human (hACC2) ACC2 (O00763 whole entry): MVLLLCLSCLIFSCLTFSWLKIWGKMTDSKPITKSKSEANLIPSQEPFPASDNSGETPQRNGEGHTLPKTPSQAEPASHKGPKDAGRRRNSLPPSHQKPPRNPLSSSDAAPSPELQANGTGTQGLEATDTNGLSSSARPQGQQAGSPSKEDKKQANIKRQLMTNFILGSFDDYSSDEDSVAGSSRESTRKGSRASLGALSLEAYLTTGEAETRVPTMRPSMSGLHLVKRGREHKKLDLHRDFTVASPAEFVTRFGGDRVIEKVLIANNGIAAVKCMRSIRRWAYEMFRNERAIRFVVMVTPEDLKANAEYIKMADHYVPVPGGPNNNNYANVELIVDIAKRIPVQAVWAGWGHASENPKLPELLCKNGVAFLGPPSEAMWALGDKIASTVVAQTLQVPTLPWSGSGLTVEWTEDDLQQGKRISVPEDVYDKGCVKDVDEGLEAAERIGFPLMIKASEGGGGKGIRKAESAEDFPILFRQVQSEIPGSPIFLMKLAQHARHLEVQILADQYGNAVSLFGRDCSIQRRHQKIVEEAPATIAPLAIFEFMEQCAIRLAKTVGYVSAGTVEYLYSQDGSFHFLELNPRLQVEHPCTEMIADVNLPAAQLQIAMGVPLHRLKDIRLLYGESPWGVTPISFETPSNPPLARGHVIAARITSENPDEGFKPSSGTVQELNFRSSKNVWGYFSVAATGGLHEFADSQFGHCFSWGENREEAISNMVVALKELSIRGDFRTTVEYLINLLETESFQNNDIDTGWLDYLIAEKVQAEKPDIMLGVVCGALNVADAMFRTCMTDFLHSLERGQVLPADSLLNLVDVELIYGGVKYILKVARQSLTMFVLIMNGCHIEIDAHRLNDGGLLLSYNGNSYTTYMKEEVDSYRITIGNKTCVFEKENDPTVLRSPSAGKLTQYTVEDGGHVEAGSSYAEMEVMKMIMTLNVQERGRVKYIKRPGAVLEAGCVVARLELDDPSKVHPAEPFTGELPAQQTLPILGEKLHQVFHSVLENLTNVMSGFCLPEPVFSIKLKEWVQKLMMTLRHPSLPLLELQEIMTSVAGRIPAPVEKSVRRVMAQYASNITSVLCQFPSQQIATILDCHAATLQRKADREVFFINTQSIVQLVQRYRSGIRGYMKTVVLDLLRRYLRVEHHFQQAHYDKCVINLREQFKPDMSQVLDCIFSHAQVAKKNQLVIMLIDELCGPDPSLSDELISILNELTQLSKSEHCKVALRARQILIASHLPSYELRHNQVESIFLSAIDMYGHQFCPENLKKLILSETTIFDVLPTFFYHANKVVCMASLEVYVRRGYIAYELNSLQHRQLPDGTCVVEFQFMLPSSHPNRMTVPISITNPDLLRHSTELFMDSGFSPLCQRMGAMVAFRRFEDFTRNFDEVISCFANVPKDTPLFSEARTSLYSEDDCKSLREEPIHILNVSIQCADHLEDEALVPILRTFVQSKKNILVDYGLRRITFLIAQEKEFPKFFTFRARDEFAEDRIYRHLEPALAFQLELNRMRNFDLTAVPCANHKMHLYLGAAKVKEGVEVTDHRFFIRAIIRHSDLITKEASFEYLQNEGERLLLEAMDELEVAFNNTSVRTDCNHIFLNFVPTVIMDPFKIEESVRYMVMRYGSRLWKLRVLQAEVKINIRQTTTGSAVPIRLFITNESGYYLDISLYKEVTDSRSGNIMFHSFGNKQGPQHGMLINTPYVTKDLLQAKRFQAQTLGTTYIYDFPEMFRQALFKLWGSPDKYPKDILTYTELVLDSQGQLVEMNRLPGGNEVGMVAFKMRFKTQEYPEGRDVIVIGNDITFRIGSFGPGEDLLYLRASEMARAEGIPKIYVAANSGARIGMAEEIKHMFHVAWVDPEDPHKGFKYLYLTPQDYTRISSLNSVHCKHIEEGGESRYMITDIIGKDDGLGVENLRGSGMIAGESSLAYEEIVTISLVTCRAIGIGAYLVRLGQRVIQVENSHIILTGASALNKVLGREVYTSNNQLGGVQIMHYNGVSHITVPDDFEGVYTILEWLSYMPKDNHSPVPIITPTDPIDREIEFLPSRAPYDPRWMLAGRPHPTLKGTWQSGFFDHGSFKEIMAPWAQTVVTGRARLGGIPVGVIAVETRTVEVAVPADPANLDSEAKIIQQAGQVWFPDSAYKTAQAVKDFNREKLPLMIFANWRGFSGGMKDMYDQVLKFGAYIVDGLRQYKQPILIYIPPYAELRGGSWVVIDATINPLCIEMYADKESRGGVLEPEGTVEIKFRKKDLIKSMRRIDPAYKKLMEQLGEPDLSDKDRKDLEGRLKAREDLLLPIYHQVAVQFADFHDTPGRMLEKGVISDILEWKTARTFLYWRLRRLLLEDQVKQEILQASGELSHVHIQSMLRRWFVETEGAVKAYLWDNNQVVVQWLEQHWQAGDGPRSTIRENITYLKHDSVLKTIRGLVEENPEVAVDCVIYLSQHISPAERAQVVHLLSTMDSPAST
Description: The detailed procedure is as follows. […] 10 μL ADP glo reagent was added. […] 20 μL kinase detection reagent was added.
“NA” stands for “not assayed.”

[2] = tested on: Fusarium virguliforme (Fv); assay: Growth inhibition assay of fungal pathogens; assay type: cell-based; conditions: 48 h
Description: (§2) Compounds of the present invention were evaluated in a growth inhibition assay to determine the ability to control the growth of fungal pathogens, such as Botrtyis cinerea (Bc), Collectotrichum graminicola (Cg). Diplodia maydis (Dm), Fusarium moniliforme (Fm), Fusarium virguliforme (Fv), Phytophthora capsici (Pc), Rhizoctonia solani (Rs), and Septoria tritici (St). Compounds to be tested were dissolved in DMSO at 2.5 mg/ml to produce compound stock solutions (“stocks”). Stocks were diluted with DMSO by a five-fold dilution in a 96-well stock plate, and two sets of final concentrations of 50, 10, and 2 ppm or 2, 0.4, and 0.08 ppm were obtained in vitro. A set of positive controls was also prepared, with various concentrations of Soraphen (2, 0.4, and 0.08 ppm), Metalaxyl (1.1, 0.22, and 0.04 ppm), and Metconazole (2, 0.4, and 0.08 ppm or 0.2, 0.04, and 0.008 ppm) after the five-fold dilutions. Negative controls on each plate included 2% DMSO, water, and a blank (media+2% DMSO). Fungal spores were isolated from previously sub-cultured plates of Botrtyis cinerea (Bc). Collectotrichum graminicola (Cg). Diplodia maydis (Dm), Fusarium moniliforme (Fm), Fusarium virguliforme (Fv), Phytophthora capsici (Pc), and Septoria tritici (St). The isolated spores were diluted to individual concentrations with a 17% V8 liquid media. For Rhizoctonia solani (Rs) and Pythium irregulare, 1.5 mm mycelial plugs were used in place of spores and ¼ Potato Dextrose Broth (PDB) was used for dilution. The spore concentrations and plug sizes were based on growth curves generated at 48 hours for each pathogen. In a second 96-well plate, the spores or mycelial plugs, media, diluted compound solutions, and controls were combined. Once the compound was added, a true final concentration of compound in each well was measured by an OD600 reading, which adjusted for any compound precipitation that might have occurred in the well. Plate readings were repeated at both 24 and 48 hours. The blank negative control was used as a background subtraction. Additional visual ratings were performed at both 24 and 48 hours for checking on precipitation and confirming efficacy. Visual and OD600 ratings of the compounds at 48 hours were compared to the 2% DMSO negative control, and the percent of pathogen growth inhibition was determined based on those values.

[3] = tested on: Phytophthora capsici (Pc); assay: Growth inhibition assay of fungal pathogens; assay type: cell-based; conditions: for IC90: Phytophthora capsici, read-out: Concentration at 90% Inhibition Pc
Description: as §2

Rhizoctonia solani (Rs) = assay: Growth inhibition assay of fungal pathogens; assay type: cell-based; conditions: 48 h, read-out: Concentration at 90% Inhibition Rs
Description: as §2

Botrtyis cinerea (Bc) = assay: Growth inhibition assay of fungal pathogens; assay type: cell-based; conditions: 48 h, read-out: Concentration at 90% Inhibition Bc
Description: as §2

Septoria tritici (St) = assay: Growth inhibition assay of fungal pathogens; assay type: cell-based; conditions: for IC90: Zymoseptoria tritici, read-out: Concentration at 90% Inhibition St
Description: as §2

[4] = tested on: Collectotrichum graminicola (Cg); assay: Growth inhibition assay of fungal pathogens; assay type: cell-based; conditions: 48 h, read-out: Concentration at 90% Inhibition Cg
Description: as §2

Diplodia maydis (Dm) = assay: Growth inhibition assay of fungal pathogens; assay type: cell-based; conditions: Stenocarpella maydis, 48 h, read-out: Concentration at 90% Inhibition Dm
Description: as §2

[5] = tested on: Fusarium moniliforme (Fm); assay: Growth inhibition assay of fungal pathogens; assay type: cell-based; conditions: for IC90: Fusarium verticillioides, 48 h, read-out: Concentration at 90% Inhibition Fm
Description: as §2

[6] = ATCC22019, 3 replicates, MIC recorded at 48 h
[7] = ATCC90028, 3 replicates, MIC recorded at 48 h
[8] = ATCC6258, 3 replicates, MIC recorded at 48 h
[9] = Table 4a, 48 hours, read-out: Concentration at 90% Inhibition Fv
[10] = Table 4b, 48 hours, read-out: Concentration at 90% Inhibition Fv

| SMILES | MIC [1, 6] [µg/mL] | MIC (C. albicans ATCC 90028; [7]) [µg/mL] | MIC (C. krusei ATCC 6258; [8]) [µg/mL] | IC50 (human (hACC2) ACC2) [nM] | IC90 [2, 9] [µg/mL] | IC90 [2, 10] [µg/mL] | IC90 ([3]; Table 4a, 48 hours) [µg/mL] | Concentration at 90% Inhibition Pc ([3]; Table 4b, 48 hours) | IC90 (Rhizoctonia solani (Rs); Table 4a) [µg/mL] | IC90 (Rhizoctonia solani (Rs); Table 4b) [µg/mL] | IC90 (Botrtyis cinerea (Bc); Table 4a) [µg/mL] | IC90 (Botrtyis cinerea (Bc); Table 4b) [µg/mL] | Concentration at 90% Inhibition St (Septoria tritici (St); Table 4b, 48 hours) | IC90 (Septoria tritici (St); Table 4a, 48 hours) [µg/mL] | IC90 ([4]; Table 4a) [µg/mL] | IC90 ([4]; Table 4b) [µg/mL] | IC90 (Diplodia maydis (Dm); Table 4a) [µg/mL] | IC90 (Diplodia maydis (Dm); Table 4b) [µg/mL] | IC90 ([5]; Table 4a, 48 hours) [µg/mL] | IC90 ([5]; Table 4b, 48 hours) [µg/mL] | other results |
| --- | --- | --- | --- | --- | --- | --- | --- | --- | --- | --- | --- | --- | --- | --- | --- | --- | --- | --- | --- | --- | --- |
| COc1ccc(F)cc1[C@H](Cn1c(=O)n(C(C)(C)C(N)=O)c(=O)c2c(C)c(-n3cccn3)sc21)OC1CCOCC1 [Compound I-4, (R)-2-(1-(2-(5-fluoro-2-methoxyphenyl)-2-((tetrahydro-2H-pyran-4-yl)oxy)ethyl)-5-methyl-2,4-dioxo-6-(1H-pyrazol-1-yl)-1,4-dihydrothieno[2,3-d]pyrimidin-3(2H)-yl)-2-methylpropanamide] | > 4.1 | > 4.1 | 2.1 to 4 (≈ 3.59 to 6.83 µM) | 10 to 40 | > 50 | > 50 | > 50 | D (“D” provided a compound concentration of >50 ppm at 90% inhibition of fungal pathogens) | > 50 | > 50 | 2 (≈ 3.41 µM) | 2 (≈ 3.41 µM) | D (“D” provided a compound concentration of >50 ppm at 90% inhibition of fungal pathogens) | > 50 | > 50 | 10 (≈ 17.1 µM) | > 50 | > 50 | 2 (≈ 3.41 µM) | 2 (≈ 3.41 µM) |  |
| COc1ccc(F)cc1[C@H](Cn1c(=O)n(C(C)(C)C(=O)NC(C)C)c(=O)c2c(C)c(-n3cccn3)sc21)OC1CCOCC1 [Compound I-6, (R)-2-(1-(2-(5-fluoro-2-methoxyphenyl)-2-((tetrahydro-2H-pyran-4-yl)oxy)ethyl)-5-methyl-2,4-dioxo-6-(1H-pyrazol-1-yl)-1,4-dihydrothieno[2,3-d]pyrimidin-3(2H)-yl)-N-isopropyl-2-methylpropanamide] |  |  |  | 10 to 40 |  |  |  |  | > 50 | 10 (≈ 15.9 µM) | 2 (≈ 3.19 µM) | 2 (≈ 3.19 µM) |  |  | 10 (≈ 15.9 µM) | 2 (≈ 3.19 µM) | 10 (≈ 15.9 µM) | 2 (≈ 3.19 µM) |  |  | MIC ([1]; ATCC22019, 48 h): 1.1 to 2 µg/mL (≈ 1.75 to 3.19 µM); MIC (C. albicans ATCC 90028; ATCC90028, 48 h): 0.25 to 1 µg/mL (≈ 0.398 to 1.59 µM); MIC (C. krusei ATCC 6258; ATCC6258, 48 h): 0.25 to 1 µg/mL (≈ 0.398 to 1.59 µM); IC90 ([2]; read-out: Concentration at 90% Inhibition Fv, Table 4a, 48 hours): 2 µg/mL (≈ 3.19 µM); IC90 ([2]; read-out: Concentration at 90% Inhibition Fv, Table 4b, 48 hours): 2 µg/mL (≈ 3.19 µM); IC90 ([3]; 48 h, Table 4a): > 50 µg/mL; IC90 ([3]; 48 h, Table 4b): > 50 µg/mL; IC90 (Septoria tritici (St); 48 h, Table 4a): > 50 µg/mL; IC90 (Septoria tritici (St); 48 h, Table 4b): > 50 µg/mL; IC90 [5]: 0.4 µg/mL (≈ 0.637 µM); Concentration at 90% Inhibition Fm ([5]; Table 4b, 48 hours): A (“A” provided a compound concentration of 0.4 ppm at 90% inhibition of fungal pathogens) |
| COc1ccccc1[C@H](Cn1c(=O)n(C(C)(C)C(=O)N2CCCC2)c(=O)c2c(C)c(-n3cccn3)sc21)OCC(C)C [Compound I-22, (R)-1-(2-isobutoxy-2-(2-methoxyphenyl)ethyl)-5-methyl-3-(2-methyl-1-oxo-1-(pyrrolidin-1-yl)propan-2-yl)-6-(1H-pyrazol-1-yl)thieno[2,3-d]pyrimidine-2,4(1H,3H)-dione] | 1.1 to 2 (≈ 1.85 to 3.37 µM) | 0.25 to 1 (≈ 0.421 to 1.68 µM) | 0.25 to 1 (≈ 0.421 to 1.68 µM) | 3 to 10 | > 50 | 10 (≈ 16.8 µM) | > 50 | D (“D” provided a compound concentration of >50 ppm at 90% inhibition of fungal pathogens) | 2 (≈ 3.37 µM) | 2 (≈ 3.37 µM) | 2 (≈ 3.37 µM) | 2 (≈ 3.37 µM) | D (“D” provided a compound concentration of >50 ppm at 90% inhibition of fungal pathogens) | > 50 | 2 (≈ 3.37 µM) | 2 (≈ 3.37 µM) | 2 (≈ 3.37 µM) | 2 (≈ 3.37 µM) | 2 (≈ 3.37 µM) | 0.4 (≈ 0.674 µM) |  |
| COc1ccc(F)cc1[C@H](Cn1c(=O)n(C(C)(C)C(=O)N2CCOCC2)c(=O)c2c(C)c(-n3cccn3)sc21)OC(C)C [Compound I-3, (R)-1-(2-(5-fluoro-2-methoxyphenyl)-2-isopropoxyethyl)-5-methyl-3-(2-methyl-1-morpholino-1-oxopropan-2-yl)-6-(1H-pyrazol-1-yl)thieno[2,3-d]pyrimidine-2,4(1H,3H)-dione] | > 4.1 | > 4.1 | 2.1 to 4 (≈ 3.42 to 6.52 µM) | 10 to 40 | 2 (≈ 3.26 µM) | 2 (≈ 3.26 µM) | > 50 | D (“D” provided a compound concentration of >50 ppm at 90% inhibition of fungal pathogens) | > 50 | > 50 | > 50 | 10 (≈ 16.3 µM) | D (“D” provided a compound concentration of >50 ppm at 90% inhibition of fungal pathogens) | > 50 | > 50 | > 50 | > 50 | 10 (≈ 16.3 µM) | 2 (≈ 3.26 µM) | 2 (≈ 3.26 µM) |  |
